Measurements as given in patent publication US5164190A, “Subsaturated transdermal drug delivery device exhibiting enhanced drug flux” (Theratech, Inc., priority 1990, dated 1992).
Structures can show the parent of a compound that is named as a salt. Where two headings read alike, the source gives them in different places. One block for each compound: values may come before it.

Tests used:
[1] = cumulative permeation at 24 hr through skin in vitro; assay type: in vitro ADME, human; conditions: for Cumulative Permeation: 24 hr
Protocol: (§1) The term "skin flux" intends the rate of transfer of drug across skin as measured by the method of Merritt and Cooper (J Controlled Release (1984) 1:161). The units of flux are preferably μg/cm^2 /hr.
The following examples further illustrate the invention and its unique characteristics. These examples are not intended to limit the invention in any manner. In the following examples in vitro steady state transdermal flux across human cadaver skin was determined using the method of Merritt and Cooper, supra. Unless otherwise indicated percentages and proportions are by volume. […]
[…]. The matrix containing 8% estradiol was saturated; the others were subsaturated.
The matrix containing 8% estradiol was saturated; the others were subsaturated.

[2] = assay type: in vitro ADME, human
Protocol: as §1
The following examples further illustrate the invention and its unique characteristics. These examples are not intended to limit the invention in any manner. In the following examples in vitro steady state transdermal flux across human cadaver skin was determined using the method of Merritt and Cooper, supra. Unless otherwise indicated percentages and proportions are by volume.
Formulations of progesterone at varying concentrations were made by mixing progesterone with the indicated ingredients and applied to cadaver skin. The meanings of the abbreviations that appear in the table are: Gly=glycerine; GDO=glycerol dioleate; ML=methyl laurate; OA=oleic acid; GMO=glycerol monooleate.
Additional progesterone systems were formulated and tested as in Example 1. Abbreviations are as in Example 1. Progesterone was present at saturation in system 1 and below saturation in systems 2-6.
Formulations of the hydrophilic drugs oxybutynin HCl and mecamylamine HCl were prepared and tested as in Examples 1 and 2. The formulations of Table 3 containing oxybutynin HCl at 40 mg/ml were saturated and the formulations of Table 4 containing 80 mg/ml of mecamylamine HCl were saturated. All other systems were at drug concentrations below saturation.
[…]. The matrix containing 30% norethindrone acetate was saturated; all others were subsaturated.

Cumulative Permeation ([1]; Table 7, 1% estradiol, acrylic adhesive matrix with 20% sorbitan monooleate, S.D. 1.40): 11.36 μg/cm^2 | Cumulative Permeation ([1]; Table 7, 2% estradiol, acrylic adhesive matrix with 20% sorbitan monooleate, S.D. 6.24): 28.31 μg/cm^2 | Cumulative Permeation ([1]; Table 7, 3% estradiol, acrylic adhesive matrix with 20% sorbitan monooleate, S.D. 6.64): 40.88 μg/cm^2 | Cumulative Permeation ([1]; Table 7, 4% estradiol, acrylic adhesive matrix with 20% sorbitan monooleate, S.D. 4.46): 44.94 μg/cm^2 | Cumulative Permeation ([1]; Table 7, 6% estradiol, acrylic adhesive matrix with 20% sorbitan monooleate, S.D. 3.03): 22.56 μg/cm^2 | Cumulative Permeation ([1]; Table 7, 8% estradiol (saturated), acrylic adhesive matrix with 20% sorbitan monooleate, S.D. 5.25): 12.93 μg/cm^2 | Cumulative Permeation ([1]; Table 8, 1% estradiol, acrylic adhesive matrix without permeation enhancer, S.D. 1.84): 9.33 μg/cm^2 | Cumulative Permeation ([1]; Table 8, 2% estradiol, acrylic adhesive matrix without permeation enhancer, S.D. 1.42): 16.55 μg/cm^2 | Cumulative Permeation ([1]; Table 8, 3% estradiol, acrylic adhesive matrix without permeation enhancer, S.D. 2.16): 21.21 μg/cm^2 | Cumulative Permeation ([1]; Table 8, 4% estradiol, acrylic adhesive matrix without permeation enhancer, S.D. 0.64): 16.11 μg/cm^2 | Cumulative Permeation ([1]; Table 8, 6% estradiol, acrylic adhesive matrix without permeation enhancer, S.D. 0.27): 18.42 μg/cm^2 | Cumulative Permeation ([1]; Table 8, 8% estradiol (saturated), acrylic adhesive matrix without permeation enhancer, S.D. 3.93): 9.20 μg/cm^2
SMILES: C[C@]12CC[C@@H]3c4ccc(O)cc4CC[C@H]3[C@@H]1CC[C@@H]2O [estradiol]
maximum permeation versus estradiol concentration ([1]; matrices with sorbitan monolaurate, ointments EtOH/H2O/Gly/GMO/ML 20/60/5/7.5/7.5): maximum permeation was observed at estradiol concentrations below saturation

SMILES: CC(C)NCC(O)COc1cccc2[nH]ccc12 (stereo not shown) [pindolol free base, pindolol]
dependence of flux on drug concentration ([2]; ointment and solid matrix systems): classic Fickian dependence of flux on drug concentration

SMILES: CCN(CC)CC#CCOC(=O)C(O)(c1ccccc1)C1CCCCC1 (stereo not shown) [Oxybutyrin, oxybutynin HCl]
Flux ([2]; Table 3 system 1, 5 mg/ml, 40/53/5/2 EtOH/H2O/Gly/GMO, N=3): 5.6 ± 0.9 μg/cm^2 /hr | Flux ([2]; Table 3 system 1, 10 mg/ml, 40/53/5/2 EtOH/H2O/Gly/GMO, N=6): 13.3 ± 2.6 μg/cm^2 /hr | Flux ([2]; Table 3 system 1, 20 mg/ml, 40/53/5/2 EtOH/H2O/Gly/GMO, N=12): 16.9 ± 5.2 μg/cm^2 /hr | Flux ([2]; Table 3 system 1, 40 mg/ml (saturated), 40/53/5/2 EtOH/H2O/Gly/GMO, N=4): 29.1 ± 11.2 μg/cm^2 /hr | Flux ([2]; Table 3 system 2, 5 mg/ml, 40/54/5/1 EtOH/H2O/Gly/GMO, N=3): 8.0 ± 1.4 μg/cm^2 /hr | Flux ([2]; Table 3 system 2, 10 mg/ml, 40/54/5/1 EtOH/H2O/Gly/GMO, N=6): 10.1 ± 3.3 μg/cm^2 /hr | Flux ([2]; Table 3 system 2, 20 mg/ml, 40/54/5/1 EtOH/H2O/Gly/GMO, N=12): 17.5 ± 5.1 μg/cm^2 /hr | Flux ([2]; Table 3 system 2, 40 mg/ml (saturated), 40/54/5/1 EtOH/H2O/Gly/GMO, N=5): 38.8 ± 18.9 μg/cm^2 /hr | Flux ([2]; Table 3 system 3, 5 mg/ml, 30/63/5/2 EtOH/H2O/Gly/GMO, N=3): 2.2 ± 0.2 μg/cm^2 /hr | Flux ([2]; Table 3 system 3, 10 mg/ml, 30/63/5/2 EtOH/H2O/Gly/GMO, N=9): 8.3 ± 3.8 μg/cm^2 /hr | Flux ([2]; Table 3 system 3, 20 mg/ml, 30/63/5/2 EtOH/H2O/Gly/GMO, N=12): 14.8 ± 6.1 μg/cm^2 /hr | Flux ([2]; Table 3 system 3, 40 mg/ml (saturated), 30/63/5/2 EtOH/H2O/Gly/GMO, N=6): 23.9 ± 10.0 μg/cm^2 /hr | Flux ([2]; Table 3 system 4, 5 mg/ml, 30/64/5/1 EtOH/H2O/Gly/GMO, N=3): 1.7 ± 0.3 μg/cm^2 /hr | Flux ([2]; Table 3 system 4, 10 mg/ml, 30/64/5/1 EtOH/H2O/Gly/GMO, N=6): 5.4 ± 2.5 μg/cm^2 /hr | Flux ([2]; Table 3 system 4, 20 mg/ml, 30/64/5/1 EtOH/H2O/Gly/GMO, N=15): 13.6 ± 5.2 μg/cm^2 /hr | Flux ([2]; Table 3 system 4, 40 mg/ml (saturated), 30/64/5/1 EtOH/H2O/Gly/GMO, N=6): 27.5 ± 13.1 μg/cm^2 /hr

Flux ([2]; Table 1 system 1, 75.0 mg/ml (saturated), 60/22.5/10/2.5/2.5/2.5 EtOH/H2O/Gly/GDO/ML/OA, N=8): 2.12 ± 0.47 μg/cm^2 /hr | Flux ([2]; Table 1 system 2, 50 mg/ml, 60/22.5/10/2.5/2.5/2.5 EtOH/H2O/Gly/GDO/ML/OA, N=18): 4.51 ± 1.37 μg/cm^2 /hr | Flux ([2]; Table 1 system 3, 25 mg/ml, 60/22.5/10/2.5/2.5/2.5 EtOH/H2O/Gly/GDO/ML/OA, N=3): 5.52 ± 1.38 μg/cm^2 /hr | Flux ([2]; Table 1 system 4, 75 mg/ml (saturated), 60/22.5/10/2.5/2.5/2.5 EtOH/H2O/Gly/GMO/ML/OA, N=8): 3.35 ± 2.18 μg/cm^2 /hr | Flux ([2]; Table 1 system 5, 50 mg/ml, 60/22.5/10/2.5/2.5/2.5 EtOH/H2O/Gly/GMO/ML/OA, N=18): 7.63 ± 3.00 μg/cm^2 /hr | Flux ([2]; Table 1 system 6, 37.5 mg/ml, 60/22.5/10/2.5/2.5/2.5 EtOH/H2O/Gly/GMO/ML/OA, N=6): 8.18 ± 0.90 μg/cm^2 /hr | Flux ([2]; Table 1 system 7, 25 mg/ml, 60/22.5/10/2.5/2.5/2.5 EtOH/H2O/Gly/GMO/ML/OA, N=18): 6.37 ± 1.88 μg/cm^2 /hr | Flux ([2]; Table 1 system 8, 10 mg/ml, 60/22.5/10/2.5/2.5/2.5 EtOH/H2O/Gly/GMO/ML/OA, N=3): 1.84 ± 0.33 μg/cm^2 /hr | flux at subsaturated concentrations versus at saturation ([2]; Table 1 systems, except 8): significantly greater | Flux ([2]; Table 2 system 1, 50 mg/ml (saturated), 60/22.5/10/2.5/2.5/2.5 EtOH/H2O/Gly/GDO/ML/OA, N=12): 6.01 ± 1.73 μg/cm^2 /hr | Flux ([2]; Table 2 system 2, 30 mg/ml, 60/28/10/1/1 EtOH/H2O/Gly/GMO/ML, N=3): 13.03 ± 3.35 μg/cm^2 /hr | Flux ([2]; Table 2 system 3, 25 mg/ml, 60/28/10/1/1 EtOH/H2O/Gly/GMO/ML, N=3): 12.98 ± 2.06 μg/cm^2 /hr | Flux ([2]; Table 2 system 4, 20 mg/ml, 60/28/10/1/1 EtOH/H2O/Gly/GMO/ML, N=9): 15.89 ± 6.81 μg/cm^2 /hr | Flux ([2]; Table 2 system 5, 15 mg/ml, 60/28/10/1/1 EtOH/H2O/Gly/GMO/ML, N=12): 13.13 ± 1.87 μg/cm^2 /hr | Flux ([2]; Table 2 system 6, 10 mg/ml, 60/28/10/1/1/1 EtOH/H2O/Gly/GMO/ML, N=5): 11.13 ± 1.98 μg/cm^2 /hr | fluxes at concentrations below saturation versus at saturation ([2]; Table 2 systems): significantly greater than at saturation
SMILES: CC(=O)[C@H]1CC[C@H]2[C@@H]3CCC4=CC(=O)CC[C@]4(C)[C@H]3CC[C@]12C [progesterone]
